Measurements as given in PubChem BioAssay AID2060885 (Molecular Pharmacology Branch, DTP, NCI, 2025).

Test system: NCI-H23 complex spheroids with HUVEC/MSC, viability
Experiment: Anticancer human tumor NCI-H23 cell line growth inhibition [RAS];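 for viability, T/C: 100% = DMSO vehicle control viability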
Conditions: for IC50: curve of first compound; for viability, T/C: stronger effect = lower value
Description: RAS pathway inhibitors in Combinations in Complex Spheroids
A high-throughput screen of multi-cell type tumor spheroids was designed to identify active combinations of RAS pathway inhibitors and targeted small molecules. Complex spheroids include a stromal component modeled by human endothelial cells (HUVEC) and fibroblasts modeled by human mesenchymal stem cells (MSCs). The concentration ranges selected for each drug and investigational agent were based upon clinically achievable concentrations if the clinical Cmax of the agent was known.
Compounds. The drugs and investigational agents: abemaciclib (NSC768073), cobimetinib (NSC768068), divarasib (GDC6063, NSC841802), docetaxel (NSC628503), GDC-1971 (RLY-1971, NSC841576), gemcitabine (NSC613327), inavolisib (NSC800729), ipatasertib (NSC767898), KB-0742 (NSC834161), MRTX-1133 (NSC836407), osimertinib (NSC779217), RMC-4630 (NSC839698), RMC-6236 (NSC851965), RMC-6291 (NSC852671), Ro-3306 (NSC812927), sapanisertib (NSC764658), SN-38 (NSC673596), staurosporine (NSC755774), SY5609 (NSC837396), and tovorafenib (DAY101, NSC766906), were obtained from the National Cancer Institute (NCI) Developmental Therapeutics Program Chemical Repository. The FDA-approved anticancer drug set is available from the NCI Developmental Therapeutics Program. […] The stock solutions were prepared in dimethyl sulfoxide (DMSO, Sigma-Aldrich, St. Louis, MO, cat. D2650) at 800-fold the tested concentration and stored at -70 degrees C prior to their use. All drugs and investigational agents were tested over a range starting from a high concentration at or near the clinical Cmax and decreasing in half-log increments. If the clinical Cmax for an agent had not been determined, the highest concentration tested was 10 microM.
Cell Culture. All cells were maintained in an incubator at 37 degrees C and 5% CO2 with 95% humidity. The PDC lines were cultured according to standard operating procedures established by the NCI PDMR. All PDCs were thawed and cultured in Matrigel-coated flasks prepared with a working solution of 1X Ham's F-12 nutrient mix, without supplementation (Invitrogen, Waltham, MA, cat. 11765054), 100 U/mL penicillin-streptomycin (Invitrogen, cat. 15140122), and 2.5% Matrigel (Corning Inc., Corning, NY, cat. 354248) for the first three passages. The 362531-283-R-J2-PDC and 782815-120-R-J1-PDC lines were cultured in 6C/Colon 1B media, which includes advanced DMEM/F-12 (Thermo Fisher Scientific, cat. 12634028), 10 mM HEPES (Thermo Fisher Scientific, cat. 15630080), 1X GlutaMAX supplement (Thermo Fisher Scientific, cat. 35050061), 0.1 mg/mL primocin (InvivoGen, San Diego, CA, cat. ant-pm-2), 10% defined fetal bovine serum, heat inactivated (HyClone Laboratories Inc., Logan, UT, cat. SH30070.03HI), 50% L-WRN conditioned media (ATCC, cat. CRL-3276), 1.25 mM N-Acetyl-L-cysteine (Sigma-Aldrich, cat. A9165), 10 mM nicotinamide (Sigma-Aldrich, cat. N0636), 1X B-27 supplement (Thermo Fisher Scientific, cat. 17504044), 1X N-2 supplement (Thermo Fisher Scientific, cat. 17502048), 50 ng/mL human EGF (Thermo Fisher Scientific, cat. PHG0311), and 10 microM Y-27632 dihydrochloride (Tocris Bioscience, cat. 1254). The K12877-001-R-J1-PDC line was cultured in 6I media, which includes all 6C/Colon 1B media plus 10 ng/mL human FGF-10 (PeproTech, cat. 100-26), 1 ng/mL human FGF-2 (PeproTech, cat. 100-18B), 1 µM prostaglandin E2 (Tocris Bioscience, cat. 2296), […] hydrocortisone (Sigma-Aldrich, cat. H4001), and […] bovine insulin (Sigma-Aldrich, cat. I6634). The K86415-001-R-J1-PDC line was cultured in 6D media, which includes all 6C/Colon 1B media components minus the L-WRN conditioned media. The 485176-168-R4-J1-PDC was cultured in PANC media, which includes all 6C/Colon 1B media plus 100 ng/mL human FGF-10 (PeproTech, cat. 100-26), 500 nM SB-431542 (Selleckchem, cat. S1067), and 10 nM gastrin (Tocris Bioscience, cat. 3006). […]

[1] = second compound 0.0316 µM, first compound 0.0316 µM
[2] = second compound 0.0316 µM, first compound 0.1 µM
[3] = second compound 0.0316 µM, first compound 0.316 µM
[4] = second compound 0.0316 µM, first compound 1 µM
[5] = second compound 0.0316 µM, first compound 3.16 µM
[6] = second compound 0.0316 µM, first compound 10 µM
[7] = second compound 0.1 µM, first compound 0.0316 µM
[8] = second compound 0.1 µM, first compound 0.1 µM
[9] = second compound 0.1 µM, first compound 0.316 µM
[10] = second compound 0.1 µM, first compound 1 µM
[11] = second compound 0.1 µM, first compound 3.16 µM
[12] = second compound 0.1 µM, first compound 10 µM
[13] = second compound 0.316 µM, first compound 0.0316 µM
[14] = second compound 0.316 µM, first compound 0.1 µM
[15] = second compound 0.316 µM, first compound 0.316 µM
[16] = second compound 0.316 µM, first compound 1 µM
[17] = second compound 0.316 µM, first compound 3.16 µM
[18] = second compound 0.316 µM, first compound 10 µM
[19] = second compound 1 µM, first compound 0.0316 µM
[20] = second compound 1 µM, first compound 0.1 µM
[21] = second compound 1 µM, first compound 0.316 µM
[22] = second compound 1 µM, first compound 1 µM
[23] = second compound 1 µM, first compound 3.16 µM
[24] = second compound 1 µM, first compound 10 µM
[25] = second compound 3.16 µM, first compound 0.0316 µM
[26] = second compound 3.16 µM, first compound 0.1 µM
[27] = second compound 3.16 µM, first compound 0.316 µM
[28] = second compound 3.16 µM, first compound 1 µM
[29] = second compound 3.16 µM, first compound 3.16 µM
[30] = second compound 3.16 µM, first compound 10 µM
[31] = second compound 10 µM, first compound 0.0316 µM
[32] = second compound 10 µM, first compound 0.1 µM
[33] = second compound 10 µM, first compound 0.316 µM
[34] = second compound 10 µM, first compound 1 µM
[35] = second compound 10 µM, first compound 3.16 µM
[36] = second compound 10 µM, first compound 10 µM

CC(C)NCC(C(=O)N1CCN(c2ncnc3c2C(C)CC3O)CC1)c1ccc(Cl)cc1 (stereo unspecified) + C#Cc1c(F)ccc2cc(O)cc(-c3ncc4c(N5CC6CCC(C5)N6)nc(OCC56CCCN5CC(F)C6)nc4c3F)c12
IC50 (second compound 0.0316 µM): > 10000 nM
IC50 (second compound 0.1 µM): > 10000 nM
IC50 (second compound 0.316 µM): > 10000 nM
IC50 (second compound 1 µM): > 10000 nM
IC50 (second compound 3.16 µM): 520 nM
IC50 (second compound 10 µM): < 31.6 nM
viability, T/C [1]: 100%
viability, T/C [2]: 133%
viability, T/C [3]: 89.4%
viability, T/C [4]: 90.5%
viability, T/C [5]: 76%
viability, T/C [6]: 74.2%
viability, T/C [7]: 107%
viability, T/C [8]: 122%
viability, T/C [9]: 95.3%
viability, T/C [10]: 91%
viability, T/C [11]: 69.7%
viability, T/C [12]: 66.6%
viability, T/C [13]: 122%
viability, T/C [14]: 131%
viability, T/C [15]: 99.7%
viability, T/C [16]: 84.4%
viability, T/C [17]: 70.2%
viability, T/C [18]: 55.7%
viability, T/C [19]: 108%
viability, T/C [20]: 101%
viability, T/C [21]: 73.6%
viability, T/C [22]: 66.7%
viability, T/C [23]: 56.1%
viability, T/C [24]: 49%
viability, T/C [25]: 68.6%
viability, T/C [26]: 69%
viability, T/C [27]: 51.6%
viability, T/C [28]: 44.9%
viability, T/C [29]: 37.9%
viability, T/C [30]: 32.6%
viability, T/C [31]: 38.4%
viability, T/C [32]: 40.9%
viability, T/C [33]: 34.1%
viability, T/C [34]: 26.1%
viability, T/C [35]: 22.8%
viability, T/C [36]: 18.5%

CC(C)n1nc(-c2ccc3oc(N)nc3c2)c2c(N)ncnc21 + C#Cc1c(F)ccc2cc(O)cc(-c3ncc4c(N5CC6CCC(C5)N6)nc(OCC56CCCN5CC(F)C6)nc4c3F)c12
IC50 (second compound 0.0316 µM): 53.9 nM
IC50 (second compound 0.1 µM): 43.2 nM
IC50 (second compound 0.316 µM): 22.2 nM
IC50 (second compound 1 µM): 14.8 nM
IC50 (second compound 3.16 µM): 2.86 nM
IC50 (second compound 10 µM): < 0.316 nM
viability, T/C (second compound 0.0316 µM, first compound 0.000316 µM): 105%
viability, T/C (second compound 0.0316 µM, first compound 0.001 µM): 114%
viability, T/C (second compound 0.0316 µM, first compound 0.00316 µM): 89.6%
viability, T/C (second compound 0.0316 µM, first compound 0.01 µM): 73.9%
viability, T/C [1]: 51.4%
viability, T/C [2]: 47.1%
viability, T/C (second compound 0.1 µM, first compound 0.000316 µM): 108%
viability, T/C (second compound 0.1 µM, first compound 0.001 µM): 113%
viability, T/C (second compound 0.1 µM, first compound 0.00316 µM): 84.7%
viability, T/C (second compound 0.1 µM, first compound 0.01 µM): 71.4%
viability, T/C [7]: 53.2%
viability, T/C [8]: 42.8%
viability, T/C (second compound 0.316 µM, first compound 0.000316 µM): 104%
viability, T/C (second compound 0.316 µM, first compound 0.001 µM): 106%
viability, T/C (second compound 0.316 µM, first compound 0.00316 µM): 83.7%
viability, T/C (second compound 0.316 µM, first compound 0.01 µM): 61.6%
viability, T/C [13]: 46.1%
viability, T/C [14]: 39.4%
viability, T/C (second compound 1 µM, first compound 0.000316 µM): 83.6%
viability, T/C (second compound 1 µM, first compound 0.001 µM): 93.1%
viability, T/C (second compound 1 µM, first compound 0.00316 µM): 72.8%
viability, T/C (second compound 1 µM, first compound 0.01 µM): 56.4%
viability, T/C [19]: 39.6%
viability, T/C [20]: 32.3%
viability, T/C (second compound 3.16 µM, first compound 0.000316 µM): 56.4%
viability, T/C (second compound 3.16 µM, first compound 0.001 µM): 60.4%
viability, T/C (second compound 3.16 µM, first compound 0.00316 µM): 48.4%
viability, T/C (second compound 3.16 µM, first compound 0.01 µM): 38.3%
viability, T/C [25]: 36.8%
viability, T/C [26]: 22.9%
viability, T/C (second compound 10 µM, first compound 0.000316 µM): 38.8%
viability, T/C (second compound 10 µM, first compound 0.001 µM): 38.6%
viability, T/C (second compound 10 µM, first compound 0.00316 µM): 28.8%
viability, T/C (second compound 10 µM, first compound 0.01 µM): 26.9%
viability, T/C [31]: 24.1%
viability, T/C [32]: 17%

CC(Nc1ccc2c(c1)OCCn1cc(N3C(=O)OCC3C(F)F)nc1-2)C(N)=O (stereo unspecified) + C#Cc1c(F)ccc2cc(O)cc(-c3ncc4c(N5CC6CCC(C5)N6)nc(OCC56CCCN5CC(F)C6)nc4c3F)c12
IC50 (second compound 0.0316 µM): > 10000 nM
IC50 (second compound 0.1 µM): > 10000 nM
IC50 (second compound 0.316 µM): > 10000 nM
IC50 (second compound 1 µM): > 10000 nM
IC50 (second compound 3.16 µM): 207 nM
IC50 (second compound 10 µM): < 31.6 nM
viability, T/C [1]: 96.5%
viability, T/C [2]: 112%
viability, T/C [3]: 74.5%
viability, T/C [4]: 70.5%
viability, T/C [5]: 62.9%
viability, T/C [6]: 74%
viability, T/C [7]: 108%
viability, T/C [8]: 119%
viability, T/C [9]: 77.3%
viability, T/C [10]: 69.3%
viability, T/C [11]: 64.9%
viability, T/C [12]: 71.2%
viability, T/C [13]: 107%
viability, T/C [14]: 107%
viability, T/C [15]: 66.2%
viability, T/C [16]: 66.8%
viability, T/C [17]: 63.7%
viability, T/C [18]: 60.9%
viability, T/C [19]: 98.8%
viability, T/C [20]: 86.5%
viability, T/C [21]: 60.8%
viability, T/C [22]: 54%
viability, T/C [23]: 49.5%
viability, T/C [24]: 63.8%
viability, T/C [25]: 61.2%
viability, T/C [26]: 63.6%
viability, T/C [27]: 39.8%
viability, T/C [28]: 40.4%
viability, T/C [29]: 43.1%
viability, T/C [30]: 48.1%
viability, T/C [31]: 36.6%
viability, T/C [32]: 38.7%
viability, T/C [33]: 27.5%
viability, T/C [34]: 23.4%
viability, T/C [35]: 30.8%
viability, T/C [36]: 24.2%
